Source: patent publication US4267331A, “Process for the production of 2-substituted pyrido[4,3-b]-indoles” (Pfizer Inc., priority 1980, dated 1981)
Like-named read-outs stand apart in the source and are kept apart here.

Test system: amphetamine-induced symptoms (cage movement behavior after d-amphetamine sulfate)
Assay: Antagonism of amphetamine stereotypy in rats
Assay type: in vivo
Settings: Rattus norvegicus, sc, Part A
Excerpt: The tranquilizing agents of the present invention are characterized by relief of such schizophrenic manifestations in humans as hallucinations, hostility, suspiciousness, emotional or social withdrawal, anxiety, agitation and tension. A standard procedure of detecting and comparing tranquilizing activity of compounds in this series and for which there is an excellent correlation with human efficacy is the antagonism of amphetamine-induced symptoms in rat tests, as taught by A. Weissman, et al., J. Pharmacol. Exp. Ther., 151, 339 (1966) and by Quinton, et al., Nature, 200, 178, (1963).
Antagonism of Amphetamine Stereotypy in Rats Test Procedures and Results
The effects of the compounds of the present invention on prominent amphetamine-induced symptoms were studied in rats by a rating scale modeled after the one reported by Quinton and Halliwell, and Weissman. Groups of five rats were placed in a covered plastic cage measuring approximately 26 cm.×42 cm.×16 cm. After a brief period of acclimation in the cage, the rats in each group were treated subcutaneously (s.c.) with the test compound. They were then treated 1, 5 and 24 hrs. later with d-amphetamine sulfate, 5 mg./kg. intraperitoneally (i.p.). […] On the basis of dose-response data after amphetamine it was possible to determine the effective dose of the compound necessary to antagonize or block the characteristic amphetamine behavior of cage movement for fifty percent of the rats tested (ED50). The time of rating chosen coincides with the peak action of amphetamine which is 60-80 min. after treatment with this agent.
Employing the above-described procedure, the following 4a,9b-trans compounds were tested for their ability to block the behavior effects of amphetamine, the results being reported as the ED50 in mg./kg. at the indicated times: [drawing 33]

Q: Which ED50 (1 h, s.c. per method b367, 1 Hr., read-out: ED50 (mg./kg.) 1 Hr., antagonism of amphetamine stereotypy) does the source give for `COc1ccc(C(O)CCCN2CCC3C(C2)c2cc(F)ccc2N3c2ccc(F)cc2)cc1` (stereo not drawn) here?
A: 0.1 to 0.32 mg/kg

Q: And the ED50 (5 h, s.c. per method b367, 5 Hr., read-out: ED50 (mg./kg.) 5 Hr., antagonism of amphetamine stereotypy)?
A: < 0.1 mg/kg

Q: And the ED50 (24 h, s.c. per method b367, 24 Hrs., read-out: ED50 (mg./kg.) 24 Hrs., antagonism of amphetamine stereotypy)?
A: < 0.32 mg/kg
